The compounds below were run on E. multilocularis metacestode vesicles (assay: Phosphoglucose isomerase (PGI) release assay (damage-marker release) on metacestode vesicles). Details: overview screen, 10 μM, singlets, 5 days, relative to 0.1 % Triton X-100, DMSO subtracted.
Assay type: cell-based, Echinococcus multilocularis

Row | Structure (SMILES) | PGI d5 (relative PGI release) [%]
1 | O=c1oc2ccc(Br)cc2cc1CSc1ncc[nH]1 [MMV1782105] | 1.562
2 | CCc1oc2ccccc2c1C(=O)c1ccc(O)cc1 [MMV1578558] | -2.405
3 | CCc1nc(N)nc(N)c1C#CCc1ccccc1 [MMV1581549] | -0.3014
4 | CCc1c(O)nc2ccc(F)cc2c1OCC1CCC1 [MMV1634395] | -0.4952
5 | NC(N)=NCCCCC(=O)Nc1cc(C(F)(F)F)cc(NC(=O)c2cc(C(=O)Nc3cc(C(F)(F)F)cc(NC(=O)CCCCN=C(N)N)c3O[C@@H]3CCNC3)ncn2)c1O[C@@H]1CCNC1 [MMV1634402] | -1.176
6 | NC(=O)c1ccc(I)c([N+](=O)[O-])c1 [MMV1581035] | 1.539
7 | C(=C\c1nc2ccccc2[nH]1)/c1ccc2c(c1)OCO2 [MMV1582495] | -1.5423
8 | O=C1CCC(N2C(=O)c3ccccc3C2=O)C(=O)N1 (stereo not drawn) [MMV002612] | -1.046
9 | C=C[C@]1(C)C[C@@H](OC(=O)CS[C@@H]2C[C@H]3CC[C@@H](C2)N3C)[C@]2(C)[C@H](C)CC[C@]3(CCC(=O)[C@H]32)[C@@H](C)[C@@H]1O [MMV1633674] | -1.377
10 | C[C@H](NC(CC(=O)c1ccccc1C(F)(F)F)C(=O)O)c1ccccc1 (stereo partly drawn) [MMV1579778] | -3.315
11 | Cc1c(F)cccc1NC(=O)Nc1ccc(Cl)c(S(=O)(=O)[C@H]2CCCNC2)c1O [MMV1581034] | 1.533
12 | C[C@H](Cn1cnc2c(N)ncnc21)OCP(=O)(O)O [MMV1580478] | 0.0562
13 | CO[C@@]1(NC(=O)Cc2cccs2)C(=O)N2C(C(=O)O)=C(COC(N)=O)CS[C@@H]21 [MMV1578559] | -1.349
14 | NC(=O)c1nccn([C@@H]2O[C@H](CO)[C@@H](O)[C@H]2O)c1=O [MMV1782104] | 1.472
15 | Cc1cc(CCCOc2c(C)cc(-c3noc(C(F)(F)F)n3)cc2C)on1 [MMV690467] | 0.4162
16 | O=C1NC(=O)C(Br)=C1Br [MMV1578554] | 3.162
17 | Nc1cc(-c2nc3ccccc3[nH]2)n[nH]c1=O [MMV975972] | 0.8096
18 | O=C(NCCN1CCCCC1)c1cccc(C(F)(F)F)c1 [MMV1633964] | 0.4856
19 | CN(C)CCCNC(=O)c1ccc(-c2cc(O)c3ncccc3c2)cc1 [MMV1580488] | -1.606
20 | O[C@@](Cn1cnnn1)(c1ccc(F)cc1F)C(F)(F)c1ccc(-c2ccc(OCC(F)(F)F)cc2)cn1 [MMV1634386] | -2.798
21 | COc1ccc(C)cc1NC(=O)c1ccc(S(=O)(=O)N2CCCCC2)cc1 [MMV1578579] | -1.553
22 | O=C(NO)C1(CS(=O)(=O)c2ccc(Oc3ccc(Cl)cc3)cc2)CCOCC1 [MMV690706] | 0.06885

Same assay, conditions: overview screen, 10 μM, singlets, 12 days, relative to 0.1 % Triton X-100, DMSO subtracted

Row | Structure (SMILES) | PGI d12 (relative PGI release) [%]
23 | O=c1oc2ccc(Br)cc2cc1CSc1ncc[nH]1 [MMV1782105] | -17.9407
24 | CCc1oc2ccccc2c1C(=O)c1ccc(O)cc1 [MMV1578558] | 11.8922
25 | CCc1nc(N)nc(N)c1C#CCc1ccccc1 [MMV1581549] | -5.576
26 | CCc1c(O)nc2ccc(F)cc2c1OCC1CCC1 [MMV1634395] | -17.3568
27 | NC(N)=NCCCCC(=O)Nc1cc(C(F)(F)F)cc(NC(=O)c2cc(C(=O)Nc3cc(C(F)(F)F)cc(NC(=O)CCCCN=C(N)N)c3O[C@@H]3CCNC3)ncn2)c1O[C@@H]1CCNC1 [MMV1634402] | 3.242
28 | NC(=O)c1ccc(I)c([N+](=O)[O-])c1 [MMV1581035] | -0.2873
29 | C(=C\c1nc2ccccc2[nH]1)/c1ccc2c(c1)OCO2 [MMV1582495] | -10.1943
30 | O=C1CCC(N2C(=O)c3ccccc3C2=O)C(=O)N1 (stereo not drawn) [MMV002612] | -2.884
31 | C=C[C@]1(C)C[C@@H](OC(=O)CS[C@@H]2C[C@H]3CC[C@@H](C2)N3C)[C@]2(C)[C@H](C)CC[C@]3(CCC(=O)[C@H]32)[C@@H](C)[C@@H]1O [MMV1633674] | 19.1844
32 | C[C@H](NC(CC(=O)c1ccccc1C(F)(F)F)C(=O)O)c1ccccc1 (stereo partly drawn) [MMV1579778] | -4.896
33 | Cc1c(F)cccc1NC(=O)Nc1ccc(Cl)c(S(=O)(=O)[C@H]2CCCNC2)c1O [MMV1581034] | -0.4746
34 | C[C@H](Cn1cnc2c(N)ncnc21)OCP(=O)(O)O [MMV1580478] | -19.3802
35 | CO[C@@]1(NC(=O)Cc2cccs2)C(=O)N2C(C(=O)O)=C(COC(N)=O)CS[C@@H]21 [MMV1578559] | -7.289
36 | NC(=O)c1nccn([C@@H]2O[C@H](CO)[C@@H](O)[C@H]2O)c1=O [MMV1782104] | -19.2173
37 | Cc1cc(CCCOc2c(C)cc(-c3noc(C(F)(F)F)n3)cc2C)on1 [MMV690467] | 0.2856
38 | O=C1NC(=O)C(Br)=C1Br [MMV1578554] | 5.51
39 | Nc1cc(-c2nc3ccccc3[nH]2)n[nH]c1=O [MMV975972] | -4.832
40 | O=C(NCCN1CCCCC1)c1cccc(C(F)(F)F)c1 [MMV1633964] | -18.3006
41 | CN(C)CCCNC(=O)c1ccc(-c2cc(O)c3ncccc3c2)cc1 [MMV1580488] | -1.51
42 | O[C@@](Cn1cnnn1)(c1ccc(F)cc1F)C(F)(F)c1ccc(-c2ccc(OCC(F)(F)F)cc2)cn1 [MMV1634386] | -27.2627
43 | COc1ccc(C)cc1NC(=O)c1ccc(S(=O)(=O)N2CCCCC2)cc1 [MMV1578579] | -13.2873
44 | O=C(NO)C1(CS(=O)(=O)c2ccc(Oc3ccc(Cl)cc3)cc2)CCOCC1 [MMV690706] | -1.025

These compounds were tested on E. multilocularis metacestode vesicles (assay: Metacestode vesicle viability assay (ATP, CellTiter-Glo)). Details: 10 µM.
Assay type: cell-based, Echinococcus multilocularis
Experimental: Viability was assessed after 12 days using the same metacestode vesicles as for the PGI release assay. Triton X-100 was added to each well to a final concentration of 0.1 %. Subsequently the metacestode vesicles were broken mechanically and 50 μL of the supernatant was mixed with 50 μL of CellTiter-Glo® buffer (Promega, Dübendorf, Switzerland). Measurements were performed on a HIDEX Sense microplate reader.

Row | Structure (SMILES) | Viability d12 (relative viability) [%]
45 | O=C1CCC(N2C(=O)c3ccccc3C2=O)C(=O)N1 (stereo not drawn) [MMV002612] | 99.2866
46 | C=C[C@]1(C)C[C@@H](OC(=O)CS[C@@H]2C[C@H]3CC[C@@H](C2)N3C)[C@]2(C)[C@H](C)CC[C@]3(CCC(=O)[C@H]32)[C@@H](C)[C@@H]1O [MMV1633674] | 92.0635

Same assay, conditions: overview screen, 10 μM, singlets, 12 days, relative to DMSO control

Row | Structure (SMILES) | Viability d12 (relative viability) [%]
47 | O=c1oc2ccc(Br)cc2cc1CSc1ncc[nH]1 [MMV1782105] | 107.746
48 | CCc1oc2ccccc2c1C(=O)c1ccc(O)cc1 [MMV1578558] | 72.3877
49 | CCc1nc(N)nc(N)c1C#CCc1ccccc1 [MMV1581549] | 82.8379
50 | CCc1c(O)nc2ccc(F)cc2c1OCC1CCC1 [MMV1634395] | 119.991
51 | NC(N)=NCCCCC(=O)Nc1cc(C(F)(F)F)cc(NC(=O)c2cc(C(=O)Nc3cc(C(F)(F)F)cc(NC(=O)CCCCN=C(N)N)c3O[C@@H]3CCNC3)ncn2)c1O[C@@H]1CCNC1 [MMV1634402] | 96.1157
52 | NC(=O)c1ccc(I)c([N+](=O)[O-])c1 [MMV1581035] | 321.911
53 | C(=C\c1nc2ccccc2[nH]1)/c1ccc2c(c1)OCO2 [MMV1582495] | 98.8605
54 | C[C@H](NC(CC(=O)c1ccccc1C(F)(F)F)C(=O)O)c1ccccc1 (stereo partly drawn) [MMV1579778] | 114.059
55 | Cc1c(F)cccc1NC(=O)Nc1ccc(Cl)c(S(=O)(=O)[C@H]2CCCNC2)c1O [MMV1581034] | 88.9358
56 | C[C@H](Cn1cnc2c(N)ncnc21)OCP(=O)(O)O [MMV1580478] | 132.93
57 | CO[C@@]1(NC(=O)Cc2cccs2)C(=O)N2C(C(=O)O)=C(COC(N)=O)CS[C@@H]21 [MMV1578559] | 75.9823
58 | NC(=O)c1nccn([C@@H]2O[C@H](CO)[C@@H](O)[C@H]2O)c1=O [MMV1782104] | 106.79
59 | Cc1cc(CCCOc2c(C)cc(-c3noc(C(F)(F)F)n3)cc2C)on1 [MMV690467] | 74.4224
60 | O=C1NC(=O)C(Br)=C1Br [MMV1578554] | 135.147
61 | Nc1cc(-c2nc3ccccc3[nH]2)n[nH]c1=O [MMV975972] | 175.408
62 | O=C(NCCN1CCCCC1)c1cccc(C(F)(F)F)c1 [MMV1633964] | 94.8358
63 | CN(C)CCCNC(=O)c1ccc(-c2cc(O)c3ncccc3c2)cc1 [MMV1580488] | 174.002
64 | O[C@@](Cn1cnnn1)(c1ccc(F)cc1F)C(F)(F)c1ccc(-c2ccc(OCC(F)(F)F)cc2)cn1 [MMV1634386] | 107.711
65 | COc1ccc(C)cc1NC(=O)c1ccc(S(=O)(=O)N2CCCCC2)cc1 [MMV1578579] | 52.1022
66 | O=C(NO)C1(CS(=O)(=O)c2ccc(Oc3ccc(Cl)cc3)cc2)CCOCC1 [MMV690706] | 178.089

Reference: paper PMC12410356 (International Journal for Parasitology: Drugs and Drug …, 2025)
